The values below come from patent publication US8276663B2, “Methods for reducing biological load in subterranean formations” (Halliburton Energy Services Inc., priority 2010, dated 2012).

Holding throughout (assay type): physicochemical
The nature of data set [1]: Compatibility of guar-based fluid (DELTA 140) and TTPC, FIG. 4. An excerpt: The starting viscosity of each of the tested fluids, was as follows: 824.2 for the control, 263.7 for the fluid containing 125 ppm TTPC, 567.3 for the fluid containing 250 ppm TTPC, and 721.6 for the fluid containing 375 pp, TTPC.
The nature of data set [2]: Compatibility of CMHPG-based fluid (pHaser Frac) and TTPC, FIG. 6. An excerpt: The starting viscosity of each of the tested fluids, was as follows: 719.1 for the control, 1182.63 for the fluid containing 30 ppm TTPC, 1067.5 for the fluid containing 60 ppm TTPC, and 1015.8 for the fluid containing 125 pp, TTPC.
A short description of data set [3]: Compatibility of CMHPG fluid (SIROCCO) and TTPC, FIG. 1. How it is done:
First, a treatment fluid containing 35 pptg (pounds per thousand gallons) carboxymethyl hydroxypropyl guar (CMHPG) fluid (SIROCCO, commercially available from Halliburton Energy Services, Inc. of Duncan, Okla.) with a pH of approximately 10.1 at 250° F. was tested and found to be compatible with TTPC up to about 250 ppm, as shown in FIG. 1. Not shown in […] is the starting viscosity of each of the tested fluids, which was as follows: 117.1 for the control, 140.1 for the fluid containing 125 ppm TTPC, 116.2 for the fluid containing 250 ppm TTPC, and 147.4 for the fluid containing 375 pp, TTPC.

Data set [4] is described as follows: Compatibility of HPG-based fluid (HYBOR H) and TTPC, FIG. 2. An excerpt:
Not shown in FIG. 2 is the starting viscosity of each of the tested fluids, which was as follows: 160.2 for the control, 172.9 for the fluid containing 125 ppm TTPC, 185.5 for the fluid containing 250 ppm TTPC, and 188.7 for the fluid containing 375 pp, TTPC.

Data set [5] can be described thus: Compatibility of guar-based fluid (HYBOR G) and TTPC, FIG. 3. An excerpt:
The starting viscosity of each of the tested fluids, was as follows: 138.1 for the control, 141.3 for the fluid containing 125 ppm TTPC, 125.7 for the fluid containing 250 ppm TTPC, and 128.8 for the fluid containing 375 pp, TTPC.

Data set [6] can be described thus: Compatibility of guar-based fluid (DELTA 200) and TTPC, FIG. 5. An excerpt: The starting viscosity of each of the tested fluids, was as follows: 77.0 for the control, 251.9 for the fluid containing 125 ppm TTPC, 59.7 for the fluid containing 250 ppm TTPC, and 96.8 for the fluid containing 375 pp, TTPC.

With `CCCCCCCCCCCCCC[P+](CCCC)(CCCC)CCCC.[Cl-]` [TTPC, tri-n-butyl tetradecyl phosphonium chloride], the “TTPC concentration up to which fluid is compatible” value in data set [1] (DELTA 140, 2 gptg tetramethylammonium chloride, 3 gptg BC-140, 140° F.) was “up to 375 ppm”; in data set [2] (2 gptg tetramethylammonium chloride, 1.1 gptg pH buffer, 1.4 gptg CL-37, 225° F.) it was “up to 125 ppm”; in data set [3] (pH approximately 10.1, 250° F.) it was “up to 250 ppm”; in data set [4] (1 gptg GasPerm 1000, 4% KCl, 225° F.), “up to 375 ppm”; in data set [5] (1 gptg GasPerm 1000, 5 pptg sodium thiosulfate, 225° F.), “up to 375 ppm”; in data set [6] (DELTA 200, 2 gptg Clayfix II, 2.5 gptg BC-200 UC, 204° F.), “up to 375 ppm”. The “starting viscosity of fluid” value is 263.7 in data set [1] (DELTA 140, 125 ppm TTPC); 567.3 in data set [1] (DELTA 140, 250 ppm TTPC); 721.6 in data set [1] (DELTA 140, 375 pp, TTPC); 1182.63 in data set [2] (30 ppm TTPC); 1067.5 in data set [2] (60 ppm TTPC); 1015.8 in data set [2] (125 pp, TTPC). For the same molecule, the “starting viscosity of fluid” value was 140.1 in data set [3] (125 ppm TTPC); 116.2 in data set [3] (250 ppm TTPC); 147.4 in data set [3] (375 pp, TTPC); 172.9 in data set [4] (125 ppm TTPC); 185.5 in data set [4] (250 ppm TTPC); 188.7 in data set [4] (375 pp, TTPC). For the same molecule, the “starting viscosity of fluid” value in data set [5] (125 ppm TTPC) stood at 141.3; in data set [5] (250 ppm TTPC) it was 125.7; in data set [5] (375 pp, TTPC), 128.8; in data set [6] (DELTA 200, 125 ppm TTPC), 251.9; in data set [6] (DELTA 200, 250 ppm TTPC) it was 59.7; in data set [6] (DELTA 200, 375 pp, TTPC), 96.8.
